Data: patent US20080038321A1, “PROPHYLACTIC/THERAPEUTIC COMPOSITIONS FOR LIVER DISEASES” (Ajinomoto Co., Inc., priority 2004, published 2008)

How the values were obtained:
[1] = test system: TRB3; experiment: Suppressive effects of amino acids on TRB3 expression in cultured hepatocytes (Fao cells, quantitative PCR); type: cell-based, rat; settings: 3 h, minus amino acid medium plus one L-amino acid 1 mM (or standard medium), mRNA, minus amino acid medium = 1.00, n = 4, mean ± SD
Experimental: Suppressive effects of twenty-two amino acids on TRB3 expression in rat hepatic cancer-derived Fao cells were examined.
The standard medium is a medium corresponding to the minus amino acid medium, except for further containing amino acids listed in Table 2.
RNAs were extracted from the cultured cells, the expression levels of TRB3 gene were determined through quantitative polymerase chain reaction (PCR), and the suppressive effects of amino acids on TRB3 expression were determined and compared with data of TRB3 expression induced upon amino acid starvation. The gene expression was corrected with reference to β-actin expression level. The correction was carried out in the same manner in the after-mentioned genes.
The data were corrected and expressed while taking the average of TRB3 mRNA levels after three-hour cultivation in the minus amino acid medium as 1.00.

[2] = test system: glucose-6-phosphatase (G6Pase); experiment: Effect of L-Asp on G6Pase expression suppressive action of insulin in Fao cells (quantitative PCR); type: cell-based, rat; settings: 6 h, no insulin = 1.00
Experimental: To verify whether an amino acid showing a TRB3 expression suppressive action actually increases the insulin action on hepatocytes, how L-Asp acts on glucose-6-phosphatase (G6Pase) expression suppressive action of insulin in rat hepatic cancer-derived Fao cells was studied.
Fao cells were inoculated on a 24-well plate and cultured overnight. Thereafter, 0, 0.3, and 1.0 mM L-Asp and 0, 10^−10, 10^−8, and 10^−6 M insulin were added respectively to a basal medium corresponding to RPMI 1640 medium containing no glucose but 0.1% BSA, except with L-Asp being removed therefrom, and the cells were further cultivated for six hours. RNAs were extracted from the cultured cells, and the expression levels of G6Pase were determined through quantitative PCR.
The G6Pase expression level in −Asp RPMI medium added with no insulin is defined as 1.00.
The values in the parentheses are values while defining the G6Pase expression levels in −Asp RPMI medium at respective insulin concentrations as 1.00, respectively.

[3] = test system: TRB3; experiment: TRB3 mRNA in Fao cells with L-Asp, L-Ala or both (quantitative PCR); type: cell-based, rat; settings: 3 h, L-Asp 0.05 mM, L-Ala 0.03 mM or both
Experimental: (§1) Whether the suppressive effect of L-Asp on TRB3 expression in rat hepatocyte-derived Fao cells is increased by adding L-Ala as another amino acid was studied. Whether the expression of HNF-4α is increased was also studied. Fao cells were inoculated on a 24-well plate to an amount of 2×10^5 cells/well, and the cells were cultivated in a 10% fetal bovine serum-containing RPMI 1640 medium (supplied from Nacalai Tesque, Inc.; Code No. 30264-85) at 37° C. in an atmosphere of 5% CO2 overnight. On the following day, the medium was replaced with one of a 10% fetal bovine serum-containing RPMI medium from which all amino acids had been removed (minus amino acid medium; Table 1) and media corresponding to the minus amino acid medium, except with L-Asp (concentration: 0.05 mM), L-Ala (concentration: 0.03 mM), or both added, and the cells were further cultivated at 37° C. in 2.5% CO2 atmosphere for three hours. RNAs were extracted from the cultured cells, and the TRB3 mRNA levels and the HNF-4α mRNA levels were determined through quantitative polymerase chain reaction (PCR) (Table 10).

[4] = test system: HNF-4α; experiment: HNF-4α mRNA in Fao cells with L-Asp, L-Ala or both (quantitative PCR); type: cell-based, rat; settings: 3 h, L-Asp 0.05 mM, L-Ala 0.03 mM or both
Experimental: as §1

[5] = test system: TRB3; experiment: Suppressive effects of amino acids on TRB3 expression in cultured hepatocytes (Fao cells, quantitative PCR); type: cell-based, rat; settings: other experiments; 1 mM
[6] = test system: GK rats fed with high-fat diets; experiment: GK rats fed with high-fat diets: body weight, fasting glucose, insulin, triglyceride, liver triglyceride; settings: HFD with about 6% L-Asp or 0.01% pioglitazone
[7] = before administration (baseline)

Compound: N=C(N)NCCC[C@H](N)C(=O)O [arginine]
- TRB3 expression level [1]: do not show significantly suppressed TRB3 expression

Compound: N[C@@H](CSSC[C@H](N)C(=O)O)C(=O)O [L-Cyt, cystine]
- TRB3 expression level [1]: 0.487 ± 0.13
- TRB3 expression level ([1]; listed as cystine): significantly suppressed TRB3 expression

Compound: CC(C)[C@H](N)C(=O)O [valine]
- TRB3 expression level [1]: do not show significantly suppressed TRB3 expression

Compound: insulin: insulin added to the Fao cell culture medium at 10^-10 to 10^-6 M [reference compound]
- G6Pase expression level ([2]; insulin 10^-6 M alone in -Asp RPMI): 0.023 (1.00)
- G6Pase expression level ([2]; insulin 10^-8 M alone in -Asp RPMI): 0.032 (1.00)
- G6Pase expression level ([2]; insulin 10^-10 M alone in -Asp RPMI): 0.148 (1.00)

Compound: CSCC[C@H](N)C(=O)O [methionine]
- TRB3 expression level [1]: do not show significantly suppressed TRB3 expression

Compound: N[C@@H](CO)C(=O)O [serine]
- TRB3 expression level [1]: do not show significantly suppressed TRB3 expression

Compound: C[C@H](N)C(=O)O [Ala, L-alanine]
- TRB3 mRNA level ([3]; minus amino acid medium = 1.00): 0.43
- expression level of TRB3 mRNA ([3]; of minus amino acid medium): 43%
- expression level of HNF-4α mRNA [4]: not increased
- HNF4α mRNA level ([4]; minus amino acid medium = 1.00): 0.80

Compound: N[C@@H](Cc1c[nH]c2ccccc12)C(=O)O [tryptophan]
- TRB3 expression level [1]: do not show significantly suppressed TRB3 expression

Compound: C[C@@H](O)[C@H](N)C(=O)O [threonine]
- TRB3 expression level [1]: do not show significantly suppressed TRB3 expression

Compound: NCC(=O)O [L-Gly, glycine]
- TRB3 expression level [1]: 0.665 ± 0.12
- TRB3 expression level ([1]; listed as glycine): significantly suppressed TRB3 expression

Compound: NC(=O)C[C@H](N)C(=O)O [asparagine]
- TRB3 expression level [1]: do not show significantly suppressed TRB3 expression

Compound: CC(C)C[C@H](N)C(=O)O [leucine]
- TRB3 expression level [1]: do not show significantly suppressed TRB3 expression

Compound: NC(=O)CC[C@H](N)C(=O)O [L-Gln, glutamine]
- TRB3 expression level [1]: 0.750 ± 0.15
- TRB3 expression level ([1]; listed as glutamine): significantly suppressed TRB3 expression

Compound: N[C@@H](Cc1ccccc1)C(=O)O [phenylalanine]
- TRB3 expression level [1]: do not show significantly suppressed TRB3 expression

Compound: O=C(O)[C@@H]1C[C@@H](O)CN1 [hydroxyproline]
- TRB3 expression level [1]: do not show significantly suppressed TRB3 expression

Compound: N[C@@H](CS)C(=O)O [cysteine]
- TRB3 expression level [1]: do not show significantly suppressed TRB3 expression

Compound: NCCCC[C@H](N)C(=O)O [lysine]
- TRB3 expression level [1]: do not show significantly suppressed TRB3 expression

Compound: C[N+](C)(C)CC(=O)O [betaine, reference compound]
- suppressive effect on TRB3 expression [5]: does not show a suppressive effect

Compound: CC[C@H](C)[C@H](N)C(=O)O [isoleucine]
- TRB3 expression level [1]: do not show significantly suppressed TRB3 expression

Compound: N[C@@H](Cc1c[nH]cn1)C(=O)O [L-His, histidine]
- TRB3 expression level [1]: 0.643 ± 0.19
- TRB3 expression level ([1]; listed as histidine): significantly suppressed TRB3 expression

Compound: CCc1ccc(CCOc2ccc(CC3SC(=O)NC3=O)cc2)nc1 (stereo not shown) [Pio, pioglitazone, reference compound]
- Fasting blood glucose level [6, 7]: 121 ± 37 mg/dL
- Fasting insulin level [6, 7]: 0.4 ± 0.3 ng/mL
- Fasting triglyceride level [6, 7]: 92 ± 19 mg/dL
- Body weight ([6]; before administration (baseline), n = 6): 222 ± 10 g
- Fasting blood glucose level ([6]; week 3): 127 ± 5 mg/dL
- Fasting insulin level ([6]; week 3): 1.9 ± 0.2 ng/mL
- Fasting triglyceride level ([6]; week 3): 97 ± 16 mg/dL
- Fasting blood glucose level ([6]; week 6): 109 ± 8 mg/dL
- Fasting insulin level ([6]; week 6): 1.3 ± 0.5 ng/mL
- Fasting triglyceride level ([6]; week 6): 75 ± 12 mg/dL
- Triglyceride content in liver ([6]; week 6): 36 ± 8 mg/g

Compound: O=C(O)[C@@H]1CCCN1 [proline]
- TRB3 expression level [1]: do not show significantly suppressed TRB3 expression

Compound: N[C@@H](CCC(=O)O)C(=O)O [glutamic acid]
- TRB3 expression level [1]: do not show significantly suppressed TRB3 expression

Compound: N[C@@H](Cc1ccc(O)cc1)C(=O)O [tyrosine]
- TRB3 expression level [1]: do not show significantly suppressed TRB3 expression
